Results published in US5216003A, “Diacid-containing benzimidazole compounds for treatment of neurotoxic injury” (G. D. Searle & Co., priority 1992, dated 1993).

Key:
[1] = system: NMDA receptor (rat brain hippocampal tissue); conditions: evaluation of CPP binding to rat brain hippocampal tissue; Murphy et al 1987; cited from earlier work
[2] = molecular target: [3H]MK-801 binding in rat SPM; assay: [3H]MK-801 Binding assay; conditions: 5.0 nM [3H]MK-801, 10.0 nM L-glutamate, pH 7.4, 25 °C, 30 min
Experimental: Modulation of [^3 H]MK-801 binding was performed using Triton X-100 (0.04% v/v) treated rat SPM that had been extensively washed. Assay incubations were at 25° C. for 30 min. and contained 5.0 nM [^3 H]MK-801, L-glutamate (10.0 nM), and various concentrations of the tested compound in 50 mM Tris/acetate, pH 7.4. The assay was stopped by rapid filtration, using Brandel MB-48 Harvester, through Whatman GF/B filters treated with 0.05% polyethylenimine and the samples washed four times with 2.0 mL cold buffer. The radioactivity associated with the filter was determined by liquid scintillation spectrometry. Nonspecific binding was defined using 60 μM MK-801. IC50 were determined using a logit-log transformation of the binding data.

[3] = system: tonic hindlimb extensor seizures; assay: Anticonvulsant Assay (electroconvulsive shock); assay type: in vivo, male CD-1 mice; conditions: 30 min prior to ECS; for Protected from ECS (% of Mice): 56 mg/kg s.c., n = 10, vehicle 5 (n = 20)
motor function = assay: inverted screen test for motor impairment; assay type: in vivo, male CD-1 mice; conditions: for Exhibiting Motor Impairments (% of Mice): 56 mg/kg s.c., n = 10, vehicle 10 (n = 20)
Experimental: This assay was used to determine the extent of in vivo protection against convulsions afforded by compound of the invention to mice subjected to artifically-induced convulsive conditions. Naive male CD-l mice (20-30 grams body weight) from Charles River Laboratories, Portage Mich. served as subjects. The mice had ad libitum access to food and water prior to testing and were maintained on a 12 hour light/12 hour dark schedule with testing during the light portion of the cycle. The mice were tested for motor impairment by use of the inverted screen test approximately 5 minutes prior to anticonvulsant testing. The inverted screen apparatus was similar to that described by Coughenour et al [Pharmacol. Biochem. Behav., 6, 351-353 (1977)]. Mice were placed on 13×13 cm pieces of #4 wire mesh screen which were mounted horizontally. The screens were then slowly inverted. […] Tonic hindlimb extensor seizures were then produced by application of electroconvulsive shock through concave electrodes to the eyeballs. Both the eyeballs and the electrodes were moistened with 0.9% saline to improve conductivity. The ECS stimulus was generated by use of a Grass model S48D stimulator with a Grass model CCUlA constant current unit in series with the output. Stimulation consisted of 10 msec pulses of a 60 pps single phase square wave for a duration of 200 msec. The current was held constant at 15 mA. Compound of Example #1 was suspended in a vehicle of 0.9% saline with a few drops of PG-Tween added. PG-Tween is a 1:1 mixture of propylene glycol and Tween 80. The Example #1 compound or vehicle was administered s.c. in a volume of 10 ml/kg body weight 30 minutes prior to application of the ECS stimulus. […] There were 10 mice in each treatment group.

[4] = system: pyramidal cells in CA1 of the hippocampus; assay: Forebrain Ischemia Assay (bilateral carotid occlusion, neuron count); assay type: in vivo, Mongolian gerbil; conditions: for # of Neurons/Field: 7 days
Experimental: This assay was used to determine the extent of protection afforded by compound of the invention to neural brain cells subjected to ischemic conditions. Male Mongolian gerbils, 50-70 gm, were used as subjects. Compound Example #1 was injected i.p. 30 minutes prior to carotid occlusion into 6 gerbils […]. In preparation for surgical procedures, the animals were lightly anesthetized with methoxyflurane and placed upside down on a heated pad with their snout within a nosecone. A 70:30 mixture of nitrous oxide and oxygen containing 0.5% halothane was circulated through the nosecone to provide continuous anesthesia throughout the surgical procedure. A midline incision was made in the neck and the carotid arteries were exposed. A length of suture thread was placed under each carotid. The thread was then tightened around each carotid and pressure applied to the thread to insure flow was occluded. Flow was occluded for 4-5 minutes and then the thread was removed. The carotids were visually inspected to confirm that reflow had occurred. The wound was then closed with autoclips and the gerbils allowed to recover. Following surgery, the gerbils were kept alive for 7 days. They were anesthetized with 100 mg/kg sodium pentobarbital and perfused transcardially with saline (with heparin) followed by buffered formalin. The brain was removed, trimmed and prepared for histological processing. Sections (10 microns) were stained with thionin. At 7 days following this type of transient global forebrain ischemia, damaged neurons in the vulnerable CAl region of the hippocampus have degenerated and been cleared away by glia. Quantification of the resulting lesion is made by counting the pyramidal cell somata in a 0.5 mm length of CAl of the hippocampus on the section corresponding to P 1.7 mm in the gerbil brain atlas. […] The effects of compound of Ex. #1 were assessed by comparing the number of neural cells found in the hippocampus of subjects treated with Ex. #1 compound with the cell number found in the appropriate control groups. […]

Kainate (KA) receptor = assay: [3H]kainate (KA) binding assay on synaptic plasma membranes; set-up: species or system rat; conditions: 0.5 nM [3H]kainate, pH 7.4, 0-4 °C, 60 min
Experimental: (§1) Synaptic plasma membranes (SPM) were prepared as previously described [Monahan, J. B. and Michel, J., "Identification and Characterization of an N-methyl-D-aspartate-specific L[^3 H]glutamate Recognition Site in Synaptic Plasma Membranes", J. Neurochem., 48, 1699-1708 (1987)]. The SPM were stored at a concentration of 10-15 mg/ml in 0.32M sucrose, 0.5 mM EDTA, 1 mM MgSO4, 5 mM Tris/SO4, pH 7.4, under liquid nitrogen. The identity and purity of the subcellular fractions were confirmed by both electron microscopy and marker enzymes. Protein concentrations were determined by using a modification of the method of Lowry [Ohnishi, S. T. and Barr, J. K., "A Simplified Method of Quantitating Proteins Using the Biuret and Phenol Reagents", Anal. Biochem., 86, 193-197 (1978)]. The SPM were treated identically for the [^3 H]AMPA (QUIS), [^3 H]kainate and sodium-dependent L-[^3 H]-glumatate binding assays. […] Beckman MP scintillation cocktail containing 7 mL/l acetic acid was then added and the samples counted on a Beckman LS 5800 or 3801 liquid scintillation counter with automatic corrections for quenching and counting efficiency. […] Radioligand binding to the synaptic plasma membranes was analyzed using Scatchard and Hill transformations and the Ki values of the compounds determined using logit-log transformations. […]

[5] = molecular target: NMDA receptor (N-methyl-D-aspartate-specific L-[3H]glutamate recognition site in synaptic plasma membranes); assay: NMDA-Selective Glutamate Binding Assay, L-[3H]glutamate; set-up: species or system rat; conditions: 12.5 nM L-[3H]glutamate, pH 7.4, 0-4 °C, 10 min; read-out: [3H]GLU Ki
Experimental: as §1

Ki [2] | Exhibiting Motor Impairments (% of Mice) (motor function; Test A) | Exhibiting Motor Impairments (% of Mice) (motor function; Test B) | KA Ki (Kainate (KA) receptor) | Ki [5] | Compound | NMDA antagonism [1] | Protected from ECS (% of Mice) ([3]; Test A) | Protected from ECS (% of Mice) ([3]; Test B) | protection against tonic hindlimb extensor seizures ([3]; s.c.) | motor function (motor function; s.c., similar dose range as anticonvulsant effect) | # of Neurons/Field ([4]; 300 mg/kg i.p. 30 min prior to carotid occlusion, control 19.8, p < 0.01) | # of Neurons/Field ([4]; 500 mg/kg i.p. 30 min prior to carotid occlusion, control 39.8, p < 0.005) | cell loss ([4]; i.p., 300 and 500 mg/kg, vs control, Mann-Whitney U test)
– | – | – | – | – | O=C(O)C1CN(CCCP(=O)(O)O)CCN1 (stereo not shown) [CPP, 3-(2-carboxypiperazin-4-yl)propyl-1-phosphonic acid] | potent and selective NMDA antagonist | – | – | – | – | – | – | –
3.9 µM | 10 % of Mice | 0 % of Mice | > 100 µM | 1.6 µM | O=C(O)c1nc2cccc(CP(=O)(O)O)c2[nH]1 [Example 1, 2-carboxy-4-phosphonomethylbenzimidazole] | – | 50 % of Mice | 20 % of Mice | protected against tonic hindlimb extensor seizures in a dose-dependent fashion | impaired motor function in a similar dose range | 44.3 # of Neurons/Field | 137.4 # of Neurons/Field | significantly reduced
